Here are results for four molecules from patent US4581377A, “Fluorene derivatives” (Nippon Shinyaku Co., Ltd., priority 1983, dated 1986).

The test system of one data set is carrageenin edema. The experiment in a line: Effect on carrageenin edema. It counts as in vivo, rat (male, SD strain). The following applies: Rattus norvegicus, po, read-out: Inhibition against Carrageenin edema ED30. The protocol: (Effect on carrageenin edema) One group consisting of 5 male rats of SD strain and of five weeks age was used in the experiment. Compounds to be tested were given orally and, three hours thereafter, 0.1 ml of 0.5% λ-carrageenin was injected at the right hind paw subcutaneously. After three hours, volume of the right hind paw was measured using a plethysmometer, then the volume of the hind paw before the carrageenin injection was deducted from the above measured value to obtain the degree of swelling (in ml), the average swelling inhibition rate of the groups treated with the compounds as compared with the control group was calculated and, using a method of least squares, ED30 was determined.

Another data set has as its system acetic acid writhing. Nature of the data set: Acetic acid Writhing Method. It counts as in vivo, mouse (male, ddY strain). The conditions noted are these: Mus musculus, read-out: Inhibition against Acetic acid writhing ED30.
A short description of data set [1]: Action for formation of ulcer. Details: species or system rat (male, SD strain). The conditions noted are these: rat, in vivo, po. Here is the method:
(Action for formation of ulcer)
Male rats (SD strain) of five weeks age were fasted for 24 hours and the test compound (as a suspension in CMC; 0.5% concentration) was given orally at a dose of 1 ml/100 g body weight. After 24 hours, 5% pontamine sky blue (0.5 ml) was injected intravenously and, ten minutes thereafter, the rats were killed by anesthetizing with ether and their stomachs were removed therefrom. […] When at least one ulcer was observed, the ulcer formation was decided to be positive and, according to a Weil's method (four rats per group), UD50 (50% ulcer-forming dose) was determined.

Another data set in a line: Acute Toxicity. The conditions noted are these: rat, in vivo; rats, p.o.; seven days after oral administration. Here is the method: Four male rats (SD strain) of six weeks age were used as a group and the LD50 values seven days after oral administration was calculated by Weil's method.
[2] abbreviates: rats, p.o., compound 3 h before carrageenin, paw volume after 3 h.
Setting [3] is: mice, i.p. (head), 0.6% acetic acid i.p. 3 h after oral compound (method), writhings over 20 min.

Like-named read-outs stand apart in the source and are kept apart here.

For `CC(O)C=Cc1ccc2c(c1)Cc1ccccc1-2` (stereo not shown) [Example 2, 4-(2-fluorenyl)-3-buten-2-ol], the ED30 in the data set on carrageenin edema (setting [2]) is 28.3 mg/kg; in the data set on acetic acid writhing (setting [3]) it was 1.8 mg/kg. Also, the TD50 at 24 h in data set [1] is 90 mg/kg. Further, the median lethal dose (LD50) at 168 h in “Acute Toxicity” is 1680 mg/kg.

Turning to `CC(=O)CCc1ccc2c(c1)Cc1ccccc1-2` [Example 3, 4-(2-fluorenyl)-butan-2-one], the figures for the ED30 in the data set with carrageenin edema (setting [2]) and with acetic acid writhing (setting [3]) were 12.5 mg/kg and 37.2 mg/kg, respectively. Further, in data set [1], the TD50 at 24 h amounted to 182 mg/kg. For the same molecule, the LD50 at 168 h in “Acute Toxicity” is > 2000 mg/kg.

Turning to `CC(O)CCc1ccc2c(c1)Cc1ccccc1-2` (stereo not shown) [Example 9, 4-(2-Fluorenyl)-butan-2-ol], the ED30 in the data set with carrageenin edema (setting [2]) was determined as 17.3 mg/kg; with acetic acid writhing (setting [3]), 18.4 mg/kg. Moreover, in data set [1], the TD50 at 24 h worked out at 68.4 mg/kg. For the same molecule, the LD50 at 168 h in the data set “Acute Toxicity” is > 2000 mg/kg.

On to `COc1ccc2c(c1)c(CC(=O)O)c(C)n2C(=O)c1ccc(Cl)cc1` [Indomethacin, reference compound], for which the results for the ED30 with carrageenin edema (3 h) and in the data set on acetic acid writhing (po) were 7.1 mg/kg and 2.3 mg/kg, respectively. In addition, the TD50 at 24 h in data set [1] (rats, p.o., 24 h fasted, stomach observed 24 h after dosing, read-out: UD50 (50% ulcer-forming dose)) worked out at 4 mg/kg. The molecule also gave a 50% lethal dose (LD50) at 168 h in the data set “Acute Toxicity” of 29 mg/kg.
